Source: publication PMC4869175, “Evidence that phytochrome functions as a protein kinase in plant light signalling” (Nature Communications, 2016)

Experiments:
Experiment in all cases: Binding parameters of ATP by Scatchard plot using BODIPY-FL-ATP
T418D AsphyA mutant = target: T1, T418D AsphyA mutant (Avena sativa, UniProt P06593, T418D)
T1 construct: After preparing purified full-length AsphyA mutants; made in house; host or cells: Pichia pastoris GS115
Experimental: (§1) To estimate dissociation constant (Kd) and the number of binding sites (n) of ATP in AsphyA proteins, an ATP analogue BODIPY-FL-ATP (BODIPY FL 2′-(or-3′)-O-(N-(2-aminoethyl)urethane) adenosine triphosphate; Molecular Probes) was used. 0.5 μM AsphyA proteins were incubated with increasing concentration of BODIPY-FL-ATP (0.5–5 μM) for 10 min at 30 °C, and free (unbound) ATP analogue was separated from the ATP analogue-protein complex by using Amicon Ultra Centrifugal Filter with MWCO of 10,000 Da for 5 min at 4,000g. The spectrophotometric absorbance was then measured to determine the BODIPY-FL-ATP concentrations within flow-through and the complex solutions by using Shimadzu UV-1800 spectrophotometer. […] The concentrations of BODIPY-FL-ATP were also double-checked by measuring the emission intensity of BODIPY fluorophore at the excitation wavelength of 500 nm and emission wavelength of 515 nm. The fluorescence of free BODIPY-FL-ATP in the absence of any protein component was used as a linear standard curve. The Kd and n values were then calculated by a Scatchard plot of r/[BODIPY-FL-ATP]free versus r, where r is the molar ratio of [BODIPY-FL-ATP]bound to [AsphyA]total.
(§2) Supplementary Figure 12. Determination of binding parameters of ATP in AsphyA proteins. The number of binding sites (n) and dissociation constant (Kd) of ATP in AsphyA proteins were determined by Scatchard plots using an ATP analogue, BODIPY-FL-ATP (BODIPY® FL 2′-(or-3′)-O-(N-(2-aminoethyl)urethane) adenosine triphosphate). The n and Kd values were calculated from the slopes (-1/Kd) and x-axis intercepts (n) of the Scatchard plot of r/[BODIPY-FL-ATP]free versus r, where r was the molar ratio of [BODIPY-FL-ATP]bound to [AsphyA]total. The n values of full-length (FL) AsphyA and photosensory core (66-610) were both calculated at around one per polypeptide, and the Kd values were calculated at approximately 0.87 × 10^-6 M for FL-AsphyA, 0.72 × 10^-6 M for […]
(§3) level, possibly due to too low ATP binding.
(§4) (1 picture or pasted object on this page, not shown here)

full-length AsphyA = target: T2, full-length AsphyA (Avena sativa, UniProt P06593); conditions: as restated in Discussion; Scatchard plot with BODIPY-FL-ATP; read-out: Kd value (ATP-binding site)
T2 construct: Full-length phytochrome genes of AsPHYA; made in house; host or cells: Pichia pastoris GS115
T2 sequence (P06593 1-1129): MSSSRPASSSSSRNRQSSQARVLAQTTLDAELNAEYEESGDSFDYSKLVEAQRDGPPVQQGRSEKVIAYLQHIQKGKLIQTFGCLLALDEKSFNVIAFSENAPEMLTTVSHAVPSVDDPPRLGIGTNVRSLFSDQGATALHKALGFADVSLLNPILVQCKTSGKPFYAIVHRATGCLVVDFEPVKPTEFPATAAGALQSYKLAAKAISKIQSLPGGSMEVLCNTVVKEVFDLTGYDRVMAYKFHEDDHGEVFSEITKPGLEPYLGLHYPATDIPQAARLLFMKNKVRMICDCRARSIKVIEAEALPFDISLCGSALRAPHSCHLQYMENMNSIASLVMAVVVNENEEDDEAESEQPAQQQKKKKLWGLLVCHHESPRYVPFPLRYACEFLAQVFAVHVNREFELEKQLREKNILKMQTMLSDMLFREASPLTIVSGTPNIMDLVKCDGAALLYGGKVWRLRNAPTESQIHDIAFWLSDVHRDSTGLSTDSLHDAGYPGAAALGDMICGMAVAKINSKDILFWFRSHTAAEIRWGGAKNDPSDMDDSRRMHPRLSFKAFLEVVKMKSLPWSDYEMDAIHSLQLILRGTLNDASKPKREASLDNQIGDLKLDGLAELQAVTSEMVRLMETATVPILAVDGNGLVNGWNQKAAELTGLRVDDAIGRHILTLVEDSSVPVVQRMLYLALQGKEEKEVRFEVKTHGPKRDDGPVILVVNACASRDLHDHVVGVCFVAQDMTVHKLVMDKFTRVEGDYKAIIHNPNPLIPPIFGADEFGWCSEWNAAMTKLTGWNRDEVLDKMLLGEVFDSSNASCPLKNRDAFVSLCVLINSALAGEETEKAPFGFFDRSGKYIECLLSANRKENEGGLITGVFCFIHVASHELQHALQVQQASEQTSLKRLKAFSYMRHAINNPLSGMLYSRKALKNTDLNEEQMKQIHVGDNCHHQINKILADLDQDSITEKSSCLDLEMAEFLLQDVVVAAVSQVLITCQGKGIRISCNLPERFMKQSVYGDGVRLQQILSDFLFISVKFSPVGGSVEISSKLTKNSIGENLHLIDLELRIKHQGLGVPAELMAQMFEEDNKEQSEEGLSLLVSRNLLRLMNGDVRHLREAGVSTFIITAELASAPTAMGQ
Experimental: as §1, §2, §3, §4

[1] = target: T3, photosensory core of AsphyA (66-610) (Avena sativa, UniProt P06593); conditions: as restated in Discussion; Scatchard plot with BODIPY-FL-ATP; read-out: Kd value (ATP-binding site)
T3 construct: the PAS-GAF-PHY photosensory core (66–610aa) were also cloned into pPIC3.5K; made in house; host or cells: Pichia pastoris GS115
T3 sequence (P06593 66-610): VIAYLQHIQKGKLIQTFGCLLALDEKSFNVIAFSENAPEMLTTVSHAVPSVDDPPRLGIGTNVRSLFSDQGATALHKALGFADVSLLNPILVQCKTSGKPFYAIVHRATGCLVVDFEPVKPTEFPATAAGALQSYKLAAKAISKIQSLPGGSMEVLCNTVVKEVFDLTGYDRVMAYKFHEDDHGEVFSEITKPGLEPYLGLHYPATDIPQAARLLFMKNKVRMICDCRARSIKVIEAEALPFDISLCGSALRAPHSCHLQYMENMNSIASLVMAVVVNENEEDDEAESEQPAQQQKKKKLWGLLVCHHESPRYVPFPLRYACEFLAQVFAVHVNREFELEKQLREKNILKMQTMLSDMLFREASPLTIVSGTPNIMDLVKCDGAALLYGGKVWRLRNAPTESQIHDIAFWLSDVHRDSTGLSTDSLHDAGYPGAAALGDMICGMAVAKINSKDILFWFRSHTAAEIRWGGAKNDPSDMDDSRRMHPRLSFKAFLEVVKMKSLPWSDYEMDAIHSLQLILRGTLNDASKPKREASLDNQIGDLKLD
Experimental: as §1, §2, §3, §4

T1 sequence (P06593 whole entry T418D): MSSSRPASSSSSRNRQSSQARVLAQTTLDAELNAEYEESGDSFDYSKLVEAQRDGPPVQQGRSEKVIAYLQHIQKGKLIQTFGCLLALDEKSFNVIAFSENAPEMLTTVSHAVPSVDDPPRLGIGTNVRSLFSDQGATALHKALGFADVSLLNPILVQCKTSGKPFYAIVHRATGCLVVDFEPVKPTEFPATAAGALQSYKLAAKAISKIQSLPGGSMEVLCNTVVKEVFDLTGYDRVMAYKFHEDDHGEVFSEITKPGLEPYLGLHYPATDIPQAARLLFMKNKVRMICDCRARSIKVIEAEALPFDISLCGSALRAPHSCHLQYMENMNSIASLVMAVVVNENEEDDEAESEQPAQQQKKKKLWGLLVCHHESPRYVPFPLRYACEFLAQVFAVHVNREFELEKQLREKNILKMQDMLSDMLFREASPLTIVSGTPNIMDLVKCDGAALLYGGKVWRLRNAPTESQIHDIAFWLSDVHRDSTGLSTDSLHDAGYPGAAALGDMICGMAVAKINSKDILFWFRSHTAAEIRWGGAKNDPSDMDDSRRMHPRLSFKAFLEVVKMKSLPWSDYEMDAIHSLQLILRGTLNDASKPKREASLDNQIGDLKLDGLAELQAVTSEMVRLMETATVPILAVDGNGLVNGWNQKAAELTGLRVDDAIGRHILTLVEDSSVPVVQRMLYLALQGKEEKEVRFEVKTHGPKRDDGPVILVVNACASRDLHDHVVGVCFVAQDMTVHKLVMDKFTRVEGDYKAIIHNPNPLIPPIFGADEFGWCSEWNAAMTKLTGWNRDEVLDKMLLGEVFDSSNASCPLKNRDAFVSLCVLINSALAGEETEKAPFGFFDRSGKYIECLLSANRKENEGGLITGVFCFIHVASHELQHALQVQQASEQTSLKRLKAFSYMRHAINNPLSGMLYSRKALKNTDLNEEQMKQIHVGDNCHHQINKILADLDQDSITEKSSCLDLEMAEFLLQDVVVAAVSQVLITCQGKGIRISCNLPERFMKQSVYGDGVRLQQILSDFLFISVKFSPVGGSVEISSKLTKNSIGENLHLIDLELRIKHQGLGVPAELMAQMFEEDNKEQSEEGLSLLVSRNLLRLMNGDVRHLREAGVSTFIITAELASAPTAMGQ

For `Nc1ncnc2c1ncn2[C@@H]1O[C@H](COP(=O)(O)OP(=O)(O)OP(=O)(O)O)[C@@H](O)[C@H]1O` [ATP], the Kd (T418D AsphyA mutant) was 4.76 µM, the Kd (full-length AsphyA) was 0.87 µM and the Kd [1] was 0.72 µM.
